Where a name gives a salt, the structure may show the parent alone.
Assay: Estimated concentration in DMSO-d6 after shaking an excess at 38° C., cooling to 22° C. and decantation (1H-NMR integrals)
Type: physicochemical
Settings: organic solvent or mixture, thermodynamic from solid, Composition Example 13, excess shaken at 38° C. for 15 min, cooled to 22° C., decanted, no additive, read-out: concentration in the solution (limit of solubility)
Procedure: A mixture of PEth-16:0/18:1-NMe3 (15 mg), dimethyl sulfone (0.4 mg) and DMSO-d6 (0.75 ml) was shaken at 38° C. for 15 min. The mixture was then allowed to reach ambient temperature (22° C.) and kept at that temperature for 1 h. The solution was then separated from a glassy precipitate by decantation and transferred to an NMR-tube. The concentration of PEth-16:0/18:1-NMe3 in the solution was estimated to be about 3 mg/ml by comparison of ^1H-NMR integrals in the ^1H-NMR spectrum (FIG. 7) of signals from PEth-16:0/18:1-NMe3 with the signal of dimethyl sulfone.

Structure (SMILES): CCCCCCCC/C=C\CCCCCCCC(=O)O[C@H](COC(=O)CCCCCCCCCCCCCCC)COP(=O)(O)OCC [PEth-16:0/18:1-NMe3, 1-Palmitoyl-2-oleoyl-3-ethoxyhydroxyphosphinyl-sn-glycerol trimethylammonium salt]
- solubility at 15 min: ~3000 µg/mL
